The text below walks through data of PubChem BioAssay (NCI).

Test systems include DLD-1 colon; HL-60(TB) leukemia; KM20L2 colon; M19-MEL melanoma; SF-539 CNS; SNB-78 CNS; UACC-257 melanoma; BT-549 breast; MCF7 breast; T-47D breast.
Assay in all cases: NCI-60 cell line screen, 48 h

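Method: 48-hour compound exposure of cells in 96-well plates, five concentrations, linear interpolation of endpoints. GI50: concentration for 50% inhibition of growth. Definition used: TGI = concentration required for complete inhibition of growth.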

On to `Cc1ccc([N+](=O)[O-])cc1NC(=O)C(=O)Cc1occc(=O)c1O`, for which the TGI in the test on DLD-1 colon, in the test on HL-60(TB) leukemia, in the test on KM20L2 colon, in the test on M19-MEL melanoma and with SF-539 CNS was over 100 µM in each case.
As for `O=C(/C=C\c1cccc2ccccc12)c1cccs1`, the TGI in the test with DLD-1 colon stood at 16.9 µM; in the test on HL-60(TB) leukemia it was 15.6 µM; with KM20L2 colon, 22.5 µM; in the test on M19-MEL melanoma, 22.4 µM; with SF-539 CNS it was 34.9 µM; in the test on SNB-78 CNS it was 34.5 µM. Also, the TGI in the test on UACC-257 melanoma was found to be 26.1 µM.
Take `NC(=O)N/N=C(\C(=O)C(=O)Nc1ccc(Cl)c(C(F)(F)F)c1)c1nc2ccc(C(=O)c3ccccc3)cc2[nH]c1=O`: the TGI in the test on KM20L2 colon, in the test on M19-MEL melanoma, in the test with SF-539 CNS, in the test on SNB-78 CNS and in the test on UACC-257 melanoma was over 100 µM in each case.
With `COc1cc(/C=C2\[C@H]3c4c(c(OC)c(C)c(OC)c4OC)C[C@@H](C(=O)N2Cc2ccccc2)N3C(=O)OC(C)C)c(OC)c(C)c1OC`, the TGI in the test on DLD-1 colon, in the test on HL-60(TB) leukemia, in the test with KM20L2 colon, in the test on SF-539 CNS and with UACC-257 melanoma was over 100 µM in each case.
Consider `O=C(NCc1ccccc1)c1cc2cc(O)c(O)cc2cn1`, for which the TGI in the test on DLD-1 colon is over 100 µM; with HL-60(TB) leukemia, 48.6 µM; with KM20L2 colon, 84.6 µM; with M19-MEL melanoma, 77.3 µM; in the test on SF-539 CNS, over 100 µM; in the test on SNB-78 CNS it was over 100 µM. Moreover, the TGI in the test with UACC-257 melanoma amounted to 73.1 µM.
Consider `CCOc1ccccc1N=Nc1c(-c2ccccc2)nn(C(=O)CC(=O)Nc2cccc(Cl)c2)c1-c1ccccc1`, for which the TGI in the test with DLD-1 colon, with HL-60(TB) leukemia, in the test on KM20L2 colon, in the test on M19-MEL melanoma, with SF-539 CNS and in the test on SNB-78 CNS was over 100 µM throughout. In the test on UACC-257 melanoma, this molecule returned a TGI of over 100 µM.
As for `COc1cc2nc(Sc3c([N+](=O)[O-])ncn3C)[nH]c2cc1OC`, the TGI with DLD-1 colon was 46 µM; in the test on KM20L2 colon, over 100 µM; in the test on M19-MEL melanoma, over 100 µM; in the test on SF-539 CNS, 47.5 µM; in the test with SNB-78 CNS, over 100 µM; in the test with UACC-257 melanoma, 78.3 µM.
As for `COc1ccc(C(c2ccc(C(C)C)cc(=O)c2O)c2ccc3cccnc3c2O)cc1` (stereo unspecified), the TGI in the test with DLD-1 colon turned out to be 15.3 µM; in the test on HL-60(TB) leukemia it was 6.23 µM; in the test with M19-MEL melanoma, 2.54 µM; with SF-539 CNS, 2.29 µM; in the test with SNB-78 CNS, 23.2 µM.
Regarding `CCOC(=O)C(Cc1ccccc1)NC(=O)c1ccc(N=NN(C)C)cc1` (stereo unspecified), the TGI with DLD-1 colon, in the test with HL-60(TB) leukemia, in the test on M19-MEL melanoma, with SF-539 CNS and in the test on UACC-257 melanoma was over 100 µM in each case.
In the case of `N/C(=N\N=C\c1cccs1)NO`, the TGI in the test with DLD-1 colon, in the test with HL-60(TB) leukemia, in the test on M19-MEL melanoma, with SF-539 CNS, with SNB-78 CNS and with UACC-257 melanoma was over 100 µM in each case.
For the molecule `CC(=O)NC(CCCCNC(=O)N(CCCl)N=O)C(=O)NCc1ccccc1` (stereo unspecified), the TGI in the test with DLD-1 colon, in the test on HL-60(TB) leukemia, with KM20L2 colon, with M19-MEL melanoma, in the test on SF-539 CNS and in the test with UACC-257 melanoma was over 100 µM throughout.
Turning to `CC(=O)Nc1ccc(C(=O)NN2C(=O)C(Cl)C2c2cc(Br)ccc2O)cc1` (stereo unspecified), the TGI is over 100 µM in the test on BT-549 breast; over 100 µM with DLD-1 colon; over 54.2 µM with HL-60(TB) leukemia; 33.7 µM in the test with M19-MEL melanoma; over 100 µM in the test on MCF7 breast; over 91.9 µM with SF-539 CNS. The TGI with T-47D breast and in the test with UACC-257 melanoma was over 100 µM in each case.
Take `O=C1/C(=C\C(Cl)=C/c2ccc([N+](=O)[O-])cc2)SC(=S)N1CCc1ccc(O)cc1`: the GI50 is 0.332 µM in the test with BT-549 breast; 0.341 µM with HL-60(TB) leukemia; 0.365 µM in the test with MCF7 breast; 0.328 µM in the test with SF-539 CNS; 1.64 µM with T-47D breast; 1.65 µM in the test with UACC-257 melanoma. In addition, the TGI in the test with BT-549 breast came to 1.28 µM; in the test with HL-60(TB) leukemia, 6.63 µM; in the test with MCF7 breast, 1.66 µM; in the test on SF-539 CNS, 1.12 µM; in the test on T-47D breast, 4.66 µM; in the test with UACC-257 melanoma it was 4.28 µM.
As for `CCCCCCCC/C=C/CCCCCCCC1=NC(C)(C)CN1C(C)C`, the GI50 is 1.58 µM in the test with BT-549 breast; 1.62 µM in the test with HL-60(TB) leukemia; 1.52 µM with MCF7 breast; 1.53 µM in the test on SF-539 CNS; 1.62 µM with T-47D breast; 1.86 µM in the test on UACC-257 melanoma. In addition, the TGI in the test with BT-549 breast was 3.74 µM; in the test with HL-60(TB) leukemia, 3.25 µM; in the test on MCF7 breast it was 2.95 µM; in the test on SF-539 CNS it was 2.87 µM; with T-47D breast it was 3.27 µM; with UACC-257 melanoma, 3.4 µM.
For `NC(CNO)C(=O)O` (stereo unspecified), the TGI was over 100 µM in the test with BT-549 breast; 21.7 µM in the test on HL-60(TB) leukemia; over 100 µM in the test on MCF7 breast; over 100 µM in the test on SF-539 CNS; over 100 µM in the test with T-47D breast; over 100 µM with UACC-257 melanoma.
As for `CCC1=C(C)/C(=C/c2[nH]c(CBr)c(CC)c2C)N=C1CBr`, the TGI was determined as 29 µM in the test on DLD-1 colon; 25.6 µM in the test with HL-60(TB) leukemia; 32.1 µM in the test with KM20L2 colon; 33.7 µM with M19-MEL melanoma; 38.2 µM in the test with SF-539 CNS.
For the molecule `N.N.N.N.N.N.[I-].[Os]`, the GI50 in the test with DLD-1 colon, in the test on HL-60(TB) leukemia, with KM20L2 colon, in the test with SF-539 CNS, in the test on SNB-78 CNS and in the test on UACC-257 melanoma was over 100 µM in each case. In addition, the TGI in the test with DLD-1 colon, with HL-60(TB) leukemia, in the test with KM20L2 colon, in the test with SF-539 CNS, in the test on SNB-78 CNS and in the test on UACC-257 melanoma was over 100 µM in each case.
Turning to `c1cc(OCCN2CCCCCC2)ccc1CNc1ccc2nc(CCC3CCCCC3)[nH]c2c1`, the GI50 with BT-549 breast is 1.83 µM; in the test on HL-60(TB) leukemia it was 1.76 µM; in the test with MCF7 breast, 1.72 µM; in the test on SF-539 CNS, 1.63 µM; with T-47D breast, 1.72 µM; with UACC-257 melanoma it was 1.94 µM. Besides, the TGI was found to be 5.54 µM in the test with BT-549 breast; 3.8 µM in the test on HL-60(TB) leukemia; 4.12 µM with MCF7 breast; 3.11 µM in the test on SF-539 CNS; 4.79 µM in the test on T-47D breast; 4.12 µM with UACC-257 melanoma.
